Experimental data published in patent publication US20110071108A1, “Beta-Cyclodextrin Derivatives as Antibacterial Agents” (Pinnacle Pharmaceuticals, Inc., priority 2005, published 2011).

Assays:
Assay in all cases: Bacterial panel testing, MIC by broth microdilution
Assay type in all cases: cell-based
Details in all cases: 20-24 hours growth
Eschericia coli = test system: Eschericia coli
Procedure, shortened: (§1)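 Strains grown 2-4 h at 37 °C in Mueller-Hinton or Brain Heart infusion broth, standardized to McFarland density and diluted. Compound (10 μg/ml in DMSO) serially two-fold diluted across plate in inoculated media; rifampicin control. Growth 20-24 h, clear wells scored for MIC.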

Enterococcus faecium = test system: Enterococcus faecium
Procedure, shortened: as §1

Staphylococcus aureus = test system: Staphylococcus aureus
Procedure, shortened: as §1

Salmonella choleraesuis = test system: Salmonella choleraesuis
Procedure, shortened: as §1

Bacillus atrophaeus = test system: Bacillus atrophaeus
Procedure, shortened: as §1

Pseudomonas aeruginosa = test system: Pseudomonas aeruginosa
Procedure, shortened: as §1

| Structure (SMILES) | MIC EC (Eschericia coli) [µg/mL] | MIC EF (Enterococcus faecium) [µg/mL] | MIC SA (Staphylococcus aureus) [µg/mL] | MIC SC (Salmonella choleraesuis) [µg/mL] | MIC BA (Bacillus atrophaeus) [µg/mL] | MIC PA (Pseudomonas aeruginosa) [µg/mL] |
| --- | --- | --- | --- | --- | --- | --- |
| CN(C)C[C@H]1O[C@@H]2O[C@H]3[C@H](O)[C@@H](O)[C@@H](O[C@H]4[C@H](O)[C@@H](O)[C@@H](O[C@H]5[C@H](O)[C@@H](O)[C@@H](O[C@H]6[C@H](O)[C@@H](O)[C@@H](O[C@H]7[C@H](O)[C@@H](O)[C@@H](O[C@H]8[C@H](O)[C@@H](O)[C@@H](O[C@H]1[C@H](O)[C@H]2O)O[C@@H]8CN(C)C)O[C@@H]7CN(C)C)O[C@@H]6CN(C)C)O[C@@H]5CN(C)C)O[C@@H]4CN(C)C)O[C@@H]3CN(C)C | >200 | >200 | >200 | >200 | <0.2 | >200 |
| Cl.Cl.Cl.Cl.Cl.Cl.Cl.O=C(NCC1OC2OC3C(CNC(=O)C4CC(O)CN4)OC(OC4C(CNC(=O)C5CC(O)CN5)OC(OC5C(CNC(=O)C6CC(O)CN6)OC(OC6C(CNC(=O)C7CC(O)CN7)OC(OC7C(CNC(=O)C8CC(O)CN8)OC(OC8C(CNC(=O)C9CC(O)CN9)OC(OC1C(O)C2O)C(O)C8O)C(O)C7O)C(O)C6O)C(O)C5O)C(O)C4O)C(O)C3O)C1CC(O)CN1 (stereo not drawn) | >200 | >200 | >200 | >200 | >200 | >200 |
| O[C@@H]1[C@@H](O)[C@H]2O[C@H]3[C@H](O)[C@@H](O)[C@@H](O[C@H]4[C@H](O)[C@@H](O)[C@@H](O[C@H]5[C@H](O)[C@@H](O)[C@@H](O[C@H]6[C@H](O)[C@@H](O)[C@@H](O[C@H]7[C@H](O)[C@@H](O)[C@@H](O[C@H]8[C@H](O)[C@@H](O)[C@@H](O[C@@H]1[C@@H](Cn1ccnc1)O2)O[C@@H]8Cn1ccnc1)O[C@@H]7Cn1ccnc1)O[C@@H]6Cn1ccnc1)O[C@@H]5Cn1ccnc1)O[C@@H]4Cn1ccnc1)O[C@@H]3Cn1ccnc1 | >200 | >200 | >200 | >200 | >200 | >200 |
| OCCCNC[C@H]1O[C@@H]2O[C@H]3[C@H](O)[C@@H](O)[C@@H](O[C@H]4[C@H](O)[C@@H](O)[C@@H](O[C@H]5[C@H](O)[C@@H](O)[C@@H](O[C@H]6[C@H](O)[C@@H](O)[C@@H](O[C@H]7[C@H](O)[C@@H](O)[C@@H](O[C@H]8[C@H](O)[C@@H](O)[C@@H](O[C@H]1[C@H](O)[C@H]2O)O[C@@H]8CNCCCO)O[C@@H]7CNCCCO)O[C@@H]6CNCCCO)O[C@@H]5CNCCCO)O[C@@H]4CNCCCO)O[C@@H]3CNCCCO | >200 | >200 | >200 | >200 | >200 | >200 |
| CN(C)CCNC[C@H]1O[C@@H]2O[C@H]3[C@H](O)[C@@H](O)[C@@H](O[C@H]4[C@H](O)[C@@H](O)[C@@H](O[C@H]5[C@H](O)[C@@H](O)[C@@H](O[C@H]6[C@H](O)[C@@H](O)[C@@H](O[C@H]7[C@H](O)[C@@H](O)[C@@H](O[C@H]8[C@H](O)[C@@H](O)[C@@H](O[C@H]1[C@H](O)[C@H]2O)O[C@@H]8CNCCN(C)C)O[C@@H]7CNCCN(C)C)O[C@@H]6CNCCN(C)C)O[C@@H]5CNCCN(C)C)O[C@@H]4CNCCN(C)C)O[C@@H]3CNCCN(C)C | >200 | >200 | >200 | >200 | >200 | >200 |
| O[C@@H]1[C@@H](O)[C@H]2O[C@H]3[C@H](O)[C@@H](O)[C@@H](O[C@H]4[C@H](O)[C@@H](O)[C@@H](O[C@H]5[C@H](O)[C@@H](O)[C@@H](O[C@H]6[C@H](O)[C@@H](O)[C@@H](O[C@H]7[C@H](O)[C@@H](O)[C@@H](O[C@H]8[C@H](O)[C@@H](O)[C@@H](O[C@@H]1[C@@H](CN1CCOCC1)O2)O[C@@H]8CN1CCOCC1)O[C@@H]7CN1CCOCC1)O[C@@H]6CN1CCOCC1)O[C@@H]5CN1CCOCC1)O[C@@H]4CN1CCOCC1)O[C@@H]3CN1CCOCC1 | >200 | >200 | >200 | >200 | >200 | >200 |
| Oc1ccc(NC[C@H]2O[C@@H]3O[C@H]4[C@H](O)[C@@H](O)[C@@H](O[C@H]5[C@H](O)[C@@H](O)[C@@H](O[C@H]6[C@H](O)[C@@H](O)[C@@H](O[C@H]7[C@H](O)[C@@H](O)[C@@H](O[C@H]8[C@H](O)[C@@H](O)[C@@H](O[C@H]9[C@H](O)[C@@H](O)[C@@H](O[C@H]2[C@H](O)[C@H]3O)O[C@@H]9CNc2ccc(O)cc2)O[C@@H]8CNc2ccc(O)cc2)O[C@@H]7CNc2ccc(O)cc2)O[C@@H]6CNc2ccc(O)cc2)O[C@@H]5CNc2ccc(O)cc2)O[C@@H]4CNc2ccc(O)cc2)cc1 | >200 | >200 | >200 | >200 | >200 | >200 |
| Cc1c(NC[C@H]2O[C@@H]3O[C@H]4[C@H](O)[C@@H](O)[C@@H](O[C@H]5[C@H](O)[C@@H](O)[C@@H](O[C@H]6[C@H](O)[C@@H](O)[C@@H](O[C@H]7[C@H](O)[C@@H](O)[C@@H](O[C@H]8[C@H](O)[C@@H](O)[C@@H](O[C@H]9[C@H](O)[C@@H](O)[C@@H](O[C@H]2[C@H](O)[C@H]3O)O[C@@H]9CNc2c(C)n(C)n(-c3ccccc3)c2=O)O[C@@H]8CNc2c(C)n(C)n(-c3ccccc3)c2=O)O[C@@H]7CNc2c(C)n(C)n(-c3ccccc3)c2=O)O[C@@H]6CNc2c(C)n(C)n(-c3ccccc3)c2=O)O[C@@H]5CNc2c(C)n(C)n(-c3ccccc3)c2=O)O[C@@H]4CNc2c(C)n(C)n(-c3ccccc3)c2=O)c(=O)n(-c2ccccc2)n1C | >200 | >200 | >200 | >200 | >200 | >200 |
| O=C(C1CCCO1)N1CCN(CC2OC3OC4C(CN5CCN(C(=O)C6CCCO6)CC5)OC(OC5C(CN6CCN(C(=O)C7CCCO7)CC6)OC(OC6C(CN7CCN(C(=O)C8CCCO8)CC7)OC(OC7C(CN8CCN(C(=O)C9CCCO9)CC8)OC(OC8C(CN9CCN(C(=O)C%10CCCO%10)CC9)OC(OC9C(CN%10CCN(C(=O)C%11CCCO%11)CC%10)OC(OC2C(O)C3O)C(O)C9O)C(O)C8O)C(O)C7O)C(O)C6O)C(O)C5O)C(O)C4O)CC1 (stereo not drawn) | >200 | >200 | >200 | >200 | >200 | >200 |
| OC1C2OC(CNc3ccccc3)C(OC3OC(CNc4ccccc4)C(OC4OC(CNc5ccccc5)C(OC5OC(CNc6ccccc6)C(OC6OC(CNc7ccccc7)C(OC7OC(CNc8ccccc8)C(OC8OC(CNc9ccccc9)C(O2)C(O)C8O)C(O)C7O)C(O)C6O)C(O)C5O)C(O)C4O)C(O)C3O)C1O (stereo not drawn) | >200 | >200 | >200 | >200 | >200 | >200 |
| CCCCCCCCCCCC[N+]12CC[N+](CC(=O)NCC3OC4OC5C(CNC(=O)C[N+]67CC[N+](CCCCCCCCCCCC)(CC6)CC7)OC(OC6C(CNC(=O)C[N+]78CC[N+](CCCCCCCCCCCC)(CC7)CC8)OC(OC7C(CNC(=O)C[N+]89CC[N+](CCCCCCCCCCCC)(CC8)CC9)OC(OC8C(CNC(=O)C[N+]9%10CC[N+](CCCCCCCCCCCC)(CC9)CC%10)OC(OC9C(CNC(=O)C[N+]%10%11CC[N+](CCCCCCCCCCCC)(CC%10)CC%11)OC(OC%10C(CNC(=O)C[N+]%11%12CC[N+](CCCCCCCCCCCC)(CC%11)CC%12)OC(OC3C(O)C4O)C(O)C%10O)C(O)C9O)C(O)C8O)C(O)C7O)C(O)C6O)C(O)C5O)(CC1)CC2 (stereo not drawn) | >200 | >200 | >200 | >200 | >200 | >200 |
| OC1C2OC(CN3CCN(c4ccccn4)CC3)C(OC3OC(CN4CCN(c5ccccn5)CC4)C(OC4OC(CN5CCN(c6ccccn6)CC5)C(OC5OC(CN6CCN(c7ccccn7)CC6)C(OC6OC(CN7CCN(c8ccccn8)CC7)C(OC7OC(CN8CCN(c9ccccn9)CC8)C(OC8OC(CN9CCN(c%10ccccn%10)CC9)C(O2)C(O)C8O)C(O)C7O)C(O)C6O)C(O)C5O)C(O)C4O)C(O)C3O)C1O (stereo not drawn) | >200 | >200 | >200 | >200 | >200 | >200 |
| Cl.Cl.Cl.Cl.Cl.Cl.NCCCSCC1OC2OC3C(CSCCCN)OC(OC4C(CSCCCN)OC(OC5C(CSCCCN)OC(OC6C(CSCCCN)OC(OC7C(CSCCCN)OC(OC1C(O)C2O)C(O)C7O)C(O)C6O)C(O)C5O)C(O)C4O)C(O)C3O (stereo not drawn) | >200 | >200 | >200 | >200 | >200 | >200 |
| COCCNCC1OC2OC3C(CNCCOC)OC(OC4C(CNCCOC)OC(OC5C(CNCCOC)OC(OC6C(CNCCOC)OC(OC7C(CNCCOC)OC(OC8C(CNCCOC)OC(OC1C(O)C2O)C(O)C8O)C(O)C7O)C(O)C6O)C(O)C5O)C(O)C4O)C(O)C3O (stereo not drawn) | >200 | >200 | >200 | >200 | >200 | >200 |
| CC(=O)NCC1OC2OC3C(CNC(C)=O)OC(OC4C(CNC(C)=O)OC(OC5C(CNC(C)=O)OC(OC6C(CNC(C)=O)OC(OC7C(CNC(C)=O)OC(OC8C(CNC(C)=O)OC(OC1C(O)C2O)C(O)C8O)C(O)C7O)C(O)C6O)C(O)C5O)C(O)C4O)C(O)C3O (stereo not drawn) | >200 | >200 | >200 | >200 | >200 | >200 |
